# Columns and labels:
# [1] = molecular target: T1, human recombinant bradykinin B1 receptor (Homo sapiens, UniProt P46663); assay: Human recombinant bradykinin B1 receptor competitive radioligand binding; conditions: hB1 expressed in CHO cells, [3H]-[Des-Arg10] Kallidin radioligand; read-out: B1 binding
# T1 construct: host or cells: CHO cells, clone hB1-A5
# T1 sequence (P46663 1-353): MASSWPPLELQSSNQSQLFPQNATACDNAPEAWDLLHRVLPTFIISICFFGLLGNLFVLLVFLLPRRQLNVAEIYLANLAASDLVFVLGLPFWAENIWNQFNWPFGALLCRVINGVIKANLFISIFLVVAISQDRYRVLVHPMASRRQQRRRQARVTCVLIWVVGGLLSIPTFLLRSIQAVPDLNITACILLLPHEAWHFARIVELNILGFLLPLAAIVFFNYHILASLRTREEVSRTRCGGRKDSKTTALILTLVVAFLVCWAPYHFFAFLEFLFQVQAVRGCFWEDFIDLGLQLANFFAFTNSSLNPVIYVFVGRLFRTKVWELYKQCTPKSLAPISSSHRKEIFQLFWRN
# Experimental: Assessment of Ligand Binding Affinity to B1 and B2 Receptors In Vitro by Competitive Radioligand Binding Assay
# Binding assays were carried out on human recombinant bradykinin) receptors (expressed in CHO cells, hB1-A5) according to the Euroscreen Technical Data Sheet (Cat.No.:ES-091). 20 μg protein/tube was incubated with [3,4-prolyl-3,4-^3H(N)]-[Des-Arg^10] Kallidin as radioligand. Non specific binding was determined in the presence of 10 μM Lys-des-Arg^9-Bradykinin. The final incubation volume was 250 μl. Samples were incubated for 15 min. at 25° C. then were rapidly vacuum filtered through GF/B filters presoaked for at least 1 h in 0.5% PEI. Radioactivity was determined by liquid scintillation spectroscopy.
# The ligand displacement by the compounds was determined using a minimum of seven concentrations in triplicate, and experiments were repeated at least two times. The specific radioligand binding is defined as the difference between total binding and the non-specific binding determined in the presence of an excess of unlabelled ligand. Results are expressed as a percent inhibition of specific binding obtained in the presence of RGH-478 or reference drugs. IC50 values (i.e. concentration of compound giving 50% inhibition of specific binding) were calculated from concentration-displacement curves by sigmoidal fitting using GraphPad Prism Software 4.0. Ki values (i.e. inhibition constants) were calculated using the Cheng-Prusoff equation. KD was determined from the Scatchard plot. (Editor-in-chief: Enna, S. J. and Williams, M. Current protocols in pharmacology vol. 1. John Wiley & sons Inc., 1998)
# [2] = molecular target: T2, recombinant human B1 receptors (Homo sapiens, UniProt P46663); assay: Functional assay: antagonist potency by cytosolic calcium measurement (plate reader fluorimeter) in CHO-B1 cells, agonist LysDABK; type: cell-based; conditions: CHO-B1 cells, inhibition of LysDABK (EC80)-evoked [Ca2+]i elevation; read-out: B1 func.
# T2 construct: host or cells: CHO (CHO-B1)
# T2 sequence (P46663 1-353): T1 sequence (P46663 1-353)
# Experimental: Assessment of Antagonist Potency at B1 Receptors In Vitro by Measurement of Cytosolic Calcium Ion Concentration with a Plate Reader Fluorimeter in Cells Expressing Recombinant Human B1 Receptors
# Chinese hamster ovary (CHO) cells stably expressing recombinant human B1 (CHO-B1, Euroscreen) receptors were cultured in Dulbecco's Modified Eagle's Medium (DMEM) containing 10% Fetal Calf Serum (FCS), 100 U/ml penicillin, 0.1 mg/ml streptomycin, 0.25 μg/ml amphotericin B, 1% Minimum Essential Medium Eagle (MEM), non essential amino acid solution, 600 μg/ml G418. Cells were kept at 37° C. in a humidified incubator in an atmosphere of 5% CO2/95% air and were passaged 1:4 three times a week. Cells were plated at 1.5−2.5×10^4 cell/well on standard 96-well microplates, measurements of cytosolic calcium ion concentration ([Ca^2+]i) were carried out 1-2 days after cell plating.
# Measurements of [Ca^2+]i were carried out on CHO-B1 cells stably expressing human B1 receptors, respectively. Cells were grown in standard 96-well microplates and before the measurement were loaded with a fluorescent Ca^2+-sensitive dye, fluo-4/AM (2 μM): after removing the culture medium the dye was added to the cells (dissolved in assay buffer: 145 mM NaCl, 5 mM KCl, 2 mM MgCl2, 2 mM CaCl2, 10 mM HEPES, 20 mM D-glucose, 2 mM probenecid, 100 μl/well) and cells were incubated at 37° C. in a humidified incubator in an atmosphere of 5% CO2/95% air for 40-120 min. To stop dye loading cells were washed twice with assay buffer. After washing, various concentrations of the test compounds (diluted in extracellular medium from a DMSO stock solution, final DMSO concentration was <0.1%) or buffer were added to each well depending on the experimental setup. After incubation at 37° C. for 20-25 min. baseline and agonist-evoked changes of [Ca^2+]; were measured column by column with a plate reader fluorimeter (Fluoroskan Ascent, Labsystems). Excitation and detection of emission was carried out from the bottom of the plate. Filters used for Fluo-4: excitation filter 485 nm, emission filter 538 nm. The whole measurement process was performed at 37° C. and was controlled by custom software. Inhibitory potency of the test compounds was assessed by measuring the reduction in the agonist-evoked [Ca^2+]i-elevation in the presence of different concentrations of the compounds. The agonist was LysDABK for CHO-B1 cells. Agonist was applied at an EC80 concentration; the EC80-values were derived from daily determined dose-response curves. Fluorescence data were expressed as ΔF/F (fluorescence change normalized to baseline). All treatments on a single plate were measured in multiple wells. Data from all wells with the same treatment were averaged and the average values were used for analysis. Inhibitory potency of a compound at a single concentration point was expressed as percent inhibition of the control agonist response. Sigmoidal concentration-inhibition curves were fitted to the data (derived from at least three independent experiments) and IC50-values were determined as the concentration that produces half of the maximal inhibition caused by the compound.
SMILES,Ki [1] [nM],IC50 [2] [nM]
"Cc1noc(-c2c(Cl)c3ccccc3n2-c2ccc(CNC(=O)C3(NC(=O)c4cc(C5CC5)on4)CC3)cc2)n1 [Example 114, 5-Cyclopropyl-isoxazole-3-carboxylic acid (1-{4-[3-chloro-2-(3-methyl-[1,2,4]oxadiazol-5-yl)-indol-1-yl]-benzylcarbamoyl}-cyclopropyl)-amide]",< 20,< 20
"COc1cc(C(=O)NC2(C(=O)NCc3ccc(-n4c(-c5noc(C)n5)c(C#N)c5ccccc54)cc3)CC2)on1 [Example 21, 3-Methoxy-isoxazole-5-carboxylic acid (1-{4-[3-cyano-2-(5-methyl-[1,2,4]oxadiazol-3-yl)-indol-1-yl]-benzylcarbamoyl}-cyclopropyl)-amide]",< 20,< 20
"COc1cc(C(=O)NC2(C(=O)NCc3ccc(-n4c(-c5noc(C)n5)c(Cl)c5ccccc54)cc3)CC2)on1 [Example 9, 3-Methoxy-isoxazole-5-carboxylic acid (1-{4-[3-chloro-2-(5-methyl-[1,2,4]oxadiazol-3-yl)-indol-1-yl]-benzylcarbamoyl}-cyclopropyl)-amide]",< 20,< 20
"Cc1nc(-c2c(Cl)c3ccccc3n2-c2ccc(CNC(=O)C3(NC(=O)c4cncc(C(F)(F)F)c4)CC3)cc2)no1 [Example 180, N-(1-{4-[3-Chloro-2-(5-methyl-[1,2,4]oxadiazol-3-yl)-indol-1-yl]-benzylcarbamoyl}-cyclopropyl)-5-trifluoromethyl-nicotinamide]",< 20,< 20
"COc1cc(C(=O)NC2(C(=O)N[C@H](C)c3ccc(-n4c(-c5noc(C)n5)c(Cl)c5ccccc54)cc3F)CC2)on1 [Example 191, 3-Methoxy-isoxazole-5-carboxylic acid [1-((R)-1-{4-[3-chloro-2-(5-methyl-[1,2,4]oxadiazol-3-yl)-indol-1-yl]-2-fluoro-phenyl}-ethylcarbamoyl)-cyclopropyl]amide]",< 20,< 20
"Cc1nc(-c2c(Cl)c3cc(F)ccc3n2-c2ccc(CNC(=O)C3(NC(=O)c4cc(C5CC5)on4)CC3)cc2)no1 [Example 90, 5-Cyclopropyl-isoxazole-3-carboxylic acid (1-{4-[3-chloro-5-fluoro-2-(5-methyl-[1,2,4]oxadiazol-3-yl)-indol-1-yl]-benzylcarbamoyl}-cyclopropyl)-amide]",< 20,< 20
"Cc1nc(-c2c(Cl)c3ccccc3n2-c2ccc(CNC(=O)C3(NC(=O)c4csnn4)CC3)cc2)no1 [Example 174, [1,2,3]Thiadiazole-4-carboxylic acid (1-{4-[3-chloro-2-(5-methyl-[1,2,4]oxadiazol-3-yl)-indol-1-yl]-benzylcarbamoyl}-cyclopropyl)-amide]",< 20,< 20
"Cc1noc(-c2c(Cl)c3ccccc3n2-c2ccc(CNC(=O)C3(NC(=O)c4ccnc(F)c4)CC3)cc2)n1 [Example 113, N-(1-{4-[3-Chloro-2-(3-methyl-[1,2,4]oxadiazol-5-yl)-indol-1-yl]-benzylcarbamoyl}-cyclopropyl)-2-fluoro-isonicotinamide]",< 20,< 20
"C#CCCC(=O)NC1(C(=O)NCc2ccc(-n3c(-c4noc(C)n4)c(Cl)c4ccccc43)cc2)CC1 [Example 139, 1-Pent-4-ynoylamino-cyclopropanecarboxylic acid 4-[3-chloro-2-(5-methyl-[1,2,4]oxadiazol-3-yl)-indol-1-yl]-benzylamide]",< 20,< 20
"Cc1nc(-c2c(Cl)c3cc(Cl)ccc3n2-c2ccc(CNC(=O)C3(NC(=O)C(F)(F)F)CC3)cc2)no1 [Example 65, 1-(2,2,2-Trifluoro-acetylamino)-cyclopropanecarboxylic acid 4-[3,5-dichloro-2-(5-methyl-[1,2,4]oxadiazo 1-3-yl)-indol-1-yl]-benzylamide]",< 20,< 20
"Cc1nc(-c2c(Cl)c3ccccc3n2-c2ccc(CNC(=O)C3(NC(=O)CCC(C)C)CC3)cc2)no1 [Example 140, 1-(4-Methyl-pentanoylamino)-cyclopropanecarboxylic acid 4-[3-chloro-2-(5-methyl-[1,2,4]oxadiazol-3-yl)-indol-1-yl]-benzylamide]",< 20,< 20
"COc1cc(C(=O)NC2(C(=O)NCc3ccc(-n4c(-c5noc(C)n5)cc5ccccc54)cn3)CC2)on1 [Example 57, 3-Methoxy-isoxazole-5-carboxylic acid [1-({5-[2-(5-methyl-[1,2,4]oxadiazol-3-yl)-indol-1-yl]-pyridin-2-ylmethyl}-carbamoyl)-cyclopropyl]-amide]",20 to 100,20 to 100
"COc1cc(C(=O)NC2(C(=O)NCc3ccc(-n4c(-c5nnn(C)n5)c(Cl)c5cc(F)ccc54)cc3F)CC2)on1 [Example 20, 3-Methoxy-isoxazole-5-carboxylic acid (1-{4-[3-chloro-5-fluoro-2-(2-methyl-2H-tetrazol-5-yl)-indol-1-yl]-2-fluoro-benzylcarbamoyl}-cyclopropyl)-amide]",< 20,< 20
"Cc1nc(-c2c(Cl)c3ccccc3n2-c2ccc(CNC(=O)C3(NC(=O)c4cccc(C(F)(F)F)c4F)CC3)cc2)no1 [Example 92, N-(1-{4-[3-Chloro-2-(5-methyl-[1,2,4]oxadiazol-3-yl)-indol-1-yl]-benzylcarbamoyl}-cyclopropyl)-2-fluoro-3-trifluoromethyl-benzamide]",< 20,< 20
"Cn1nnc(-c2c(Cl)c3ccccc3n2-c2ccc(CNC(=O)C3(NC(=O)C(F)(F)F)CC3)cc2)n1 [Example 1, 1-(2,2,2-Trifluoro-acetylamino)-cyclopropanecarboxylic acid 4-[3-chloro-2-(2-methyl-2H-tetrazol-5-yl)-indol-1-yl]-benzylamide]",< 20,< 20
"Cn1nnnc1-c1c(Cl)c2ccccc2n1-c1ccc(CNC(=O)C2(NC(=O)C(F)(F)F)CC2)cc1 [Example 8, 1-(2,2,2-Trifluoro-acetylamino)-cyclopropanecarboxylic acid 4-[3-chloro-2-(1-methyl-1H-tetrazol-5-yl)-indol-1-yl]-benzylamide]",< 20,< 20
